For data set [1], the system named is methicillin-resistant S. aureus ATCC 43300. It is filed as cell-based, Staphylococcus aureus. The settings on record: S. aureus ATCC 43300; TSB.
Experimental: The minimum inhibitory concentration (MIC) of paenipeptin analogues was determined using the broth microdilution method (Wirker, M. A. Methods for Dilution Antimicrobial Susceptibility Tests for Bacteria that Grow Aerobically: Approved Standard M07-A8; Clinical and Laboratory Standards Institute, Wayne, Pa., 2009). Seven reference strains (Acinetobacter baumannii ATCC 19606, Escherichia coli ATCC 25922, Klebsiella pneumoniae ATCC 13883, Pseudomonas aeruginosa ATCC 27853, Enterococcus faecium ATCC 19434, Staphylococcus aureus ATCC 29213 and methicillin-resistant S. aureus ATCC 43300) were subjected to MIC testing.
Paenipeptin analogues were two-fold diluted in tryptic soy broth (TSB; Becton Dickinson) and mixed with an equal volume of bacterial suspensions in TSB containing approximately 1.5×10^5 colony-forming units (CFU)/mL in a clear UV-sterilized 96-well microtiter plate (NBS, Corning Inc., Corning, N.Y.). […] The microtiter plate was incubated at 37° C. for 18-20 h.
Data set [2] concerns A. baumannii FDA-CDC AR 0063. The settings on record: A. baumannii AR 0063.
The test system of a further data set is rabbit red blood cells. Briefly: Hemolytic activity. The data set is classed as cell-based. The following applies: for Hemolysis: relative to Triton X-100. Summed up:
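Washed defibrinated rabbit RBCs in PBS pH 7.2 incubated 30 min at 37 °C with paenipeptin analogues at 16–128 μg/mL final. Released hemoglobin read at 415 nm in the supernatant; % hemolysis relative to 0.1% Triton X-100.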

Each structure is given as a SMILES string. Values after ≈ are worked out from the molar mass of the structure shown. Where two headings read alike, the source gives them in different places. Where a SMILES comes first, the peptide text is derived from it. [ ]: non-standard residue; d: D form. The star is where a group is joined. Dab = NCC[C@H](N)C(=O)O; Cbz = O=C(OCc1ccccc1)* Some results are limits rather than exact numbers.

Consider 1 molecule from patent US11364275B2, “Linear lipopeptide paenipeptins and methods of using the same” (priority 2017, dated 2022).

Turning to `CC[C@H](C)[C@H](NC(=O)[C@H](CCN)NC(=O)OCc1ccccc1)C(=O)N[C@@H](CCN)C(=O)N[C@H](Cc1ccccc1)C(=O)N[C@@H](CC(C)C)C(=O)N[C@@H](CCN)C(=O)N[C@@H](C(=O)N[C@@H](CC(C)C)C(=O)N[C@@H](CO)C(N)=O)C(C)C` [Analogue 15] (Cbz-[Dab]I[Dab][dF]L[Dab][dV]LS-NH2), in data set [1], the MIC is >32 µg/mL. The MIC alone in data set [2] (10% FBS) was 2 µg/mL (≈ 1.78 µM); in data set [2] (No FBS), 0.5 to 4 µg/mL. Moreover, the Hemolysis in the data set with rabbit red blood cells (16 μg/mL) stood at 0.77 ± 0.15%; in the data set on rabbit red blood cells (32 μg/mL) it was 0.41 ± 0.67%; with rabbit red blood cells (64 μg/mL), 0.54 ± 0.70%; in the data set on rabbit red blood cells (128 μg/mL), 0.65 ± 0.29%. Moreover, the “hemolytic activity (in words)” value with rabbit red blood cells (128 μg/mL) is “nonhemolytic”.

For orientation: MIC means the least concentration at which growth counts as inhibited. Read a high MIC as a less susceptible organism.
